The source of these data is US8148407B2, “Compounds derived from 5-thioxylose and their use in therapeutics” (Laboratories Fournier S.A., priority 2005, dated 2012).

Structures are written as SMILES.

System in one data set: not given
Assay: not given
Conditions: not given
The term melting point denotes the temperature of the solid-liquid transition. `COc1ccc(-c2ccncc2O[C@@H]2SC[C@@H](O)[C@H](O)[C@H]2O)cc1` [Example 101, 4-(4-methoxyphenyl)-3-pyridinyl 5-thio-β-D-xylopyranoside] displayed a melting point of 228 °C.

Regarding `Cc1cc(F)ccc1-c1cncc(O[C@@H]2SC[C@@H](O)[C@H](O)[C@H]2O)c1` [Example 61, 5-(4-fluoro-2-methylphenyl)-3-pyridinyl 5-thio-β-D-xylopyranoside], the melting point was 217 °C.

`COc1ccc(-c2cncc(O[C@@H]3SC[C@@H](O)[C@H](O)[C@H]3O)c2)cc1F` [Example 103, 5-(3-fluoro-4-methoxyphenyl)-3-pyridinyl 5-thio-β-D-xylopyranoside] yielded a melting point of 200 °C.

On to `O[C@@H]1[C@@H](O)[C@H](Oc2cncc(-c3ccc(F)cc3Cl)c2)SC[C@H]1O` [Example 89, 5-(2-chloro-4-fluorophenyl)-3-pyridinyl 5-thio-β-D-xylopyranoside], for which the melting point was 208 to 211 °C.

In turn, `CC(=O)c1ncccc1O[C@@H]1SC[C@@H](O)[C@H](O)[C@H]1O` [Example 4, 2-acetyl-3-pyridinyl 5-thio-β-D-xylopyranoside] registered a melting point of 123 °C.

For the compound `Cc1ccc(-c2ccc(O[C@@H]3SC[C@@H](O)[C@H](O)[C@H]3O)cn2)cc1` [Example 99, 6-(4-methylphenyl)-3-pyridinyl 5-thio-β-D-xylopyranoside], the melting point turned out to be 191 °C.

The compound `Cc1ccc(-c2cncc(O[C@@H]3SC[C@@H](O)[C@H](O)[C@H]3O)c2)cc1F` [Example 107, 5-(3-fluoro-4-methylphenyl)-3-pyridinyl 5-thio-β-D-xylopyranoside] gave a melting point of 213 °C.

In turn, `CC(=O)O[C@@H]1[C@@H](OC(C)=O)[C@H](OC(C)=O)CS[C@H]1Oc1cncc(C(C)=O)c1` [Example 118, 5-acetyl-3-pyridinyl 2,3,4-tri-O-acetyl-5-thio-β-D-xylopyranoside] yielded a melting point of 157 °C.

With `O[C@@H]1[C@@H](O)[C@H](Oc2cncc(Oc3ccccc3)c2)SC[C@H]1O` [Example 26, 5-phenoxy-3-pyridinyl 5-thio-β-D-xylopyranoside], the melting point was determined as 226 °C.

As to `CS(=O)(=O)c1cncc(O[C@@H]2SC[C@@H](O)[C@H](O)[C@H]2O)c1` [Example 115, 5-methylsulfonyl-3-pyridinyl 5-thio-β-D-xylopyranoside], the melting point amounted to 183 °C.

Take `COc1ccc(-c2nccc(C)c2O[C@@H]2SC[C@@H](O)[C@H](O)[C@H]2O)cc1` [Example 75, 2-(4-methoxyphenyl)-4-methyl-3-pyridinyl 5-thio-β-D-xylopyranoside]: the melting point stood at 101 °C.

Consider `N#Cc1ccc(-c2cncc(O[C@@H]3SC[C@@H](O)[C@H](O)[C@H]3O)c2)cc1Cl`, for which the melting point was 202 to 204 °C.

In the case of `O[C@@H]1[C@@H](O)[C@H](Oc2cccnc2-c2ccc(OC(F)(F)F)cc2)SC[C@H]1O` [Example 127, 2-[4-(trifluoromethoxy)phenyl]-3-pyridinyl 5-thio-β-D-xylopyranoside], the melting point lay in the range of 114 to 119 °C.

Compound `O=S(=O)(c1ccccc1)c1cncc(O[C@@H]2SC[C@@H](O)[C@H](O)[C@H]2O)c1` [Example 140, 5-(phenylsulfonyl)-3-pyridinyl 5-thio-β-D-xylopyranoside] returned a melting point of 86 °C.

Regarding `COc1cc(F)c(-c2cncc(O[C@@H]3SC[C@@H](O)[C@H](O)[C@H]3O)c2)c(F)c1` [Example 81, 5-(2,6-difluoro-4-methoxyphenyl)-3-pyridinyl 5-thio-β-D-xylopyranoside], the melting point stood at 200 °C.

As for `CC(=O)O[C@@H]1[C@@H](OC(C)=O)[C@H](OC(C)=O)CS[C@H]1Oc1cncc(S(C)(=O)=O)c1` [Example 114, 5-methylsulfonyl-3-pyridinyl 2,3,4-tri-O-acetyl-5-thio-β-D-xylopyranoside], the melting point came out at 193 °C.

Regarding `O[C@@H]1[C@@H](O)[C@H](Oc2ccc(-c3ccc(OC(F)(F)F)cc3)nc2)SC[C@H]1O` [Example 125, 6-[4-(trifluoromethoxy)phenyl]-3-pyridinyl 5-thio-β-D-xylopyranoside], the melting point was 184 to 186 °C.

`COc1c(C)cc(-c2cncc(O[C@@H]3SC[C@@H](O)[C@H](O)[C@H]3O)c2)cc1C` [Example 83, 5-(3,5-dimethyl-4-methoxyphenyl)-3-pyridinyl 5-thio-β-D-xylopyranoside] had a melting point of 173 °C.

`COc1ccc(-c2cncc(O[C@@H]3SC[C@@H](O)[C@H](O)[C@H]3O)c2)c(Cl)c1` [Example 113, 5-(2-chloro-4-methoxyphenyl)-3-pyridinyl 5-thio-β-D-xylopyranoside] displayed a melting point of 218 °C.

`O=C(NCc1ccccc1)c1ccc(O[C@@H]2SC[C@@H](O)[C@H](O)[C@H]2O)cn1` [Example 117, 6-{[(phenylmethyl)amino]carbonyl}-3-pyridinyl 5-thio-β-D-xylopyranoside] had a melting point of 89 to 91 °C.

Consider `O[C@@H]1[C@@H](O)[C@H](Oc2ccc(-c3ccc(F)cc3)nc2)SC[C@H]1O` [Example 129, 6-(4-fluorophenyl)-3-pyridinyl 5-thio-β-D-xylopyranoside], for which the melting point is 180 to 183 °C.

Consider `Cc1cc(C#N)ccc1-c1cncc(O[C@@H]2SC[C@@H](O)[C@H](O)[C@H]2O)c1` [Example 154, 5-(4-cyano-2-methylphenyl)-3-pyridinyl 5-thio-β-D-xylopyranoside], for which the melting point lay in the range of 202 to 206 °C.

Turning to `COc1ccc(-c2cc(O[C@@H]3SC[C@@H](O)[C@H](O)[C@H]3O)ccn2)cc1` [Example 77, 2-(4-methoxyphenyl)-4-pyridinyl 5-thio-β-D-xylopyranoside], the melting point lay in the range of 150 to 154 °C.

With `N#Cc1cccc(-c2cncc(O[C@@H]3SC[C@@H](O)[C@H](O)[C@H]3O)c2)c1` [Example 55, 5-(3-cyanophenyl)-3-pyridinyl 5-thio-β-D-xylopyranoside], the melting point came to 172 °C.

In the case of `O[C@@H]1[C@@H](O)[C@H](Oc2cccnc2-c2ccc(F)cc2)SC[C@H]1O` [Example 73, 2-(4-fluorophenyl)-3-pyridinyl 5-thio-β-D-xylopyranoside], the melting point worked out at 110 °C.

The next data set has as its system venous thrombosis. Nature of the data set: Venous thrombosis test in the rat (Wessler venous stasis under hypercoagulation with factor Xa), oral administration. It counts as in vivo. Particulars: Rattus norvegicus, Wistar male rats, dose 6 mg/kg, thrombosis induced 2 h after administration, read-out: Oral activity: Activity (percentage inhibition of thrombus formation). The procedure: The antithrombotic activity of the compounds according to the invention was studied in vivo in the rat by means of a test that reproduces a venous thrombosis. The venous thrombosis was induced according to the protocol described in Thromb. Haemost., 1992, 67(1), 176-179. The oral activity was studied according to the following operating protocol: The experiments are performed on non-fasted Wistar male rats weighing 250 to 280 g, divided into groups of 10 animals each. The test products are administered orally (tubage) dissolved or suspended in a solution of methyl cellulose (0.5% in water). […] To induce this thrombosis, a venous stasis is created under hypercoagulation according to the technique described by WESSLER (J. Applied Physiol., 1959, 943-946), the hypercoagulating agent used being a solution of activated factor X (Xa) having a concentration of 7.5 nKat/kg, supplied by Biogenic (Montpellier). The venous stasis is effected exactly 10 seconds after injection of the hypercoagulating agent. The activity of the test compounds was checked at different doses after they had been administered.
For `O[C@@H]1[C@@H](O)[C@H](Oc2cncc(-c3ccccc3)c2)SC[C@H]1O` [Example 14, 5-phenyl-3-pyridinyl 5-thio-β-D-xylopyranoside], the inhibition in vivo at 6 mg/kg stood at 50%.

As to `COc1ccc(-c2ccncc2O[C@@H]2SC[C@@H](O)[C@H](O)[C@H]2O)cc1` [Example 101, 4-(4-methoxyphenyl)-3-pyridinyl 5-thio-β-D-xylopyranoside], the inhibition in vivo at 6 mg/kg worked out at 97%.

For `O[C@@H]1[C@@H](O)[C@H](Oc2cncc(-c3ccccc3F)c2)SC[C@H]1O` [Example 126, 5-(2-fluorophenyl)-3-pyridinyl 5-thio-β-D-xylopyranoside], the inhibition in vivo at 6 mg/kg was determined as 91%.

For `Cc1cc(F)ccc1-c1cncc(O[C@@H]2SC[C@@H](O)[C@H](O)[C@H]2O)c1` [Example 61, 5-(4-fluoro-2-methylphenyl)-3-pyridinyl 5-thio-β-D-xylopyranoside], the inhibition in vivo at 6 mg/kg worked out at 98%.

As to `O[C@@H]1[C@@H](O)[C@H](Oc2cncc(-c3ccc(F)c(Cl)c3)c2)SC[C@H]1O` [Example 131, 5-(3-chloro-4-fluorophenyl)-3-pyridinyl 5-thio-β-D-xylopyranoside], the inhibition in vivo at 6 mg/kg stood at 80%.

Regarding `CC(=O)c1ccc(O[C@@H]2SC[C@@H](O)[C@H](O)[C@H]2O)cn1` [Example 2, 6-acetyl-3-pyridinyl 5-thio-β-D-xylopyranoside], the inhibition in vivo at 6 mg/kg stood at 63%.

As to `COc1ccc(-c2cncc(O[C@@H]3SC[C@@H](O)[C@H](O)[C@H]3O)c2)cc1F` [Example 103, 5-(3-fluoro-4-methoxyphenyl)-3-pyridinyl 5-thio-β-D-xylopyranoside], the inhibition in vivo at 6 mg/kg was 100%.

For the compound `O[C@@H]1[C@@H](O)[C@H](Oc2cncc(-c3cccc(F)c3)c2)SC[C@H]1O` [Example 123, 5-(3-fluorophenyl)-3-pyridinyl 5-thio-β-D-xylopyranoside], the inhibition in vivo at 6 mg/kg is 97%.

As to `O[C@@H]1[C@@H](O)[C@H](Oc2cncc(-c3ccc(F)cc3Cl)c2)SC[C@H]1O` [Example 89, 5-(2-chloro-4-fluorophenyl)-3-pyridinyl 5-thio-β-D-xylopyranoside], the inhibition in vivo at 6 mg/kg was found to be 100%.

On to `CC(=O)c1ncccc1O[C@@H]1SC[C@@H](O)[C@H](O)[C@H]1O` [Example 4, 2-acetyl-3-pyridinyl 5-thio-β-D-xylopyranoside], for which the inhibition in vivo at 6 mg/kg was determined as 96%.

`Cc1ccc(-c2ccc(O[C@@H]3SC[C@@H](O)[C@H](O)[C@H]3O)cn2)cc1` [Example 99, 6-(4-methylphenyl)-3-pyridinyl 5-thio-β-D-xylopyranoside]: the inhibition in vivo at 6 mg/kg turned out to be 72%.

The data set is the same for the next values; noted with them: Rattus norvegicus, Wistar male rats, dose 8.6 mg/kg, thrombosis induced 2 h after administration, read-out: Oral activity: Activity (percentage inhibition of thrombus formation).
Regarding `CC(=O)O[C@@H]1[C@@H](OC(C)=O)[C@H](OC(C)=O)CS[C@H]1Oc1cccnc1C(C)=O` [Example 3, 2-acetyl-3-pyridinyl 2,3,4-tri-O-acetyl-5-thio-β-D-xylopyranoside], the inhibition in vivo at 8.6 mg/kg is 92%.

Still in this data set, the particulars now being: Wistar male rats, dose 6 mg/kg, thrombosis induced 2 h after administration.
On to `O=C(c1ccc(C(F)(F)F)cc1)c1ccc(O[C@@H]2SC[C@@H](O)[C@H](O)[C@H]2O)cn1` [Example 8, [6-[4-(trifluoromethyl)benzoyl]-3-pyridinyl]5-thio-β-D-xylopyranoside], for which the “Oral activity: Activity (percentage inhibition of thrombus formation)” value was 46%.

Turning to `N#Cc1ccc(-c2ncccc2O[C@@H]2SC[C@@H](O)[C@H](O)[C@H]2O)cc1` [Example 12, [2-(4-cyanophenyl)-3-pyridinyl]5-thio-β-D-xylopyranoside], the “Oral activity: Activity (percentage inhibition of thrombus formation)” value was 14%.

Turning to `N#Cc1ccc(C(=O)c2ncccc2O[C@@H]2SC[C@@H](O)[C@H](O)[C@H]2O)cc1` [Example 6, [2-(4-cyanobenzoyl)-3-pyridinyl]5-thio-β-D-xylopyranoside], the “Oral activity: Activity (percentage inhibition of thrombus formation)” value is reported as 61%.

The same data set, now with this note: Wistar male rats, dose 6 mg/kg, thrombosis induced 8 h after administration.
With `N#Cc1ccc(C(=O)c2ncccc2O[C@@H]2SC[C@@H](O)[C@H](O)[C@H]2O)cc1` [Example 6, [2-(4-cyanobenzoyl)-3-pyridinyl]5-thio-β-D-xylopyranoside], the “Oral activity: Activity (percentage inhibition of thrombus formation)” value stood at 26%.

The same data set, now with this note: Wistar male rats, dose 8.2 mg/kg, thrombosis induced 2 h after administration.
For the compound `CC(=O)O[C@@H]1[C@@H](OC(C)=O)[C@H](OC(C)=O)CS[C@H]1Oc1cncc(-c2ccc(C#N)cc2)c1` [Example 15, [5-(4-cyanophenyl)-3-pyridinyl]2,3,4-tri-O-acetyl-5-thio-β-D-xylopyranoside], the “Oral activity: Activity (percentage inhibition of thrombus formation)” value was 84%.
